Assay results published in patent publication US20240024488A1, “COMPOUNDS AND USES THEREOF” (Foghorn Therapeutics Inc., priority 2020, published 2024).

Assays:
[1] = molecular target: T1, HiBit-BRG1 fusion protein (Homo sapiens, UniProt P51532); assay: HiBiT-BRG1 cell-based degradation assay (Nano-Glo HiBiT Lytic Detection, 24 h); details: HeLa cell line expressing HiBit-BRG1 and LgBit; for Dmax: read-out: BRG1 HiBit Degradation Maximum (%); for DC50: read-out: BRMG1 HiBit Degradation IC50
T1 construct: expressed in transfected cells
T1 sequence (P51532 whole entry, the tested form may be a part): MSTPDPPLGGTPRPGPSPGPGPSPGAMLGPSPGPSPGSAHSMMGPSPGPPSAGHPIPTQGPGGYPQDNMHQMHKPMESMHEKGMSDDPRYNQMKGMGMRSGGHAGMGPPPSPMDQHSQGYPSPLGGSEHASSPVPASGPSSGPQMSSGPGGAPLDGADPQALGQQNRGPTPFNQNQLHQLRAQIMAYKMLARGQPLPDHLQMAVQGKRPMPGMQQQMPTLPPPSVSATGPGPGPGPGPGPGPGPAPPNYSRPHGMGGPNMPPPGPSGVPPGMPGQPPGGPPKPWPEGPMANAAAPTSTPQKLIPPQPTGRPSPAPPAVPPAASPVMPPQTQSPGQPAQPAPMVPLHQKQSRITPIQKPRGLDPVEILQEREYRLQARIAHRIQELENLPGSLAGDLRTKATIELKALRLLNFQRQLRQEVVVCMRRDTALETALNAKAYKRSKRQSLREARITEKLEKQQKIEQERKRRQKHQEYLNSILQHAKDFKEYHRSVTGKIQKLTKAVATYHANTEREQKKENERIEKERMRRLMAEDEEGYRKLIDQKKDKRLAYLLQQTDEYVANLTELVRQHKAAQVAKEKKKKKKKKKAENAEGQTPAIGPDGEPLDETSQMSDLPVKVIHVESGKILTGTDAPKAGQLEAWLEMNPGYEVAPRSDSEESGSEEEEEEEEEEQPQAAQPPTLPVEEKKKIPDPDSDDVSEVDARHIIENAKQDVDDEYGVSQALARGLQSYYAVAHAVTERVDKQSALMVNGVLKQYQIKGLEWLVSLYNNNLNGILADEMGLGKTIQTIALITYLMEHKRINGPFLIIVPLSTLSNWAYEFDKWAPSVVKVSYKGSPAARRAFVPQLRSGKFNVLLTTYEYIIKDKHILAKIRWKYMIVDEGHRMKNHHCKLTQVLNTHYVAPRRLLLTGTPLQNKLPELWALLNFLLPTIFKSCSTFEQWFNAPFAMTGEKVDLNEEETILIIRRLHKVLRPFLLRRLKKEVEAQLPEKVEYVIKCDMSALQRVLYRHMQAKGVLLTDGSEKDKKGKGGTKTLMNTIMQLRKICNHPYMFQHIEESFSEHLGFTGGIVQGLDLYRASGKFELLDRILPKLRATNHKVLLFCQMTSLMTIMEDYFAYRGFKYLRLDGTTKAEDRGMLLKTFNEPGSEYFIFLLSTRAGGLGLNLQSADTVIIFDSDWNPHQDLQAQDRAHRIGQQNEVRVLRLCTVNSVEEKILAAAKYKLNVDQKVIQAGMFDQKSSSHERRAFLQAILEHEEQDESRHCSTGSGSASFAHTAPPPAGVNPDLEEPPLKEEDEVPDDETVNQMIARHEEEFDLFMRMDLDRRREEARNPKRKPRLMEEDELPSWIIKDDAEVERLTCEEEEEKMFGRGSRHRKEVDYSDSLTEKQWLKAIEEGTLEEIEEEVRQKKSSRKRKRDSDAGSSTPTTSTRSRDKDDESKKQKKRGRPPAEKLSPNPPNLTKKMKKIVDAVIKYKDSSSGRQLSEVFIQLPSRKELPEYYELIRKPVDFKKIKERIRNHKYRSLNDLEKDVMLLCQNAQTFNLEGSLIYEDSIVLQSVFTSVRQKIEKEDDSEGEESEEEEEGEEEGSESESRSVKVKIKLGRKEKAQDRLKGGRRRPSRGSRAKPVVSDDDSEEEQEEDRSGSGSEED
Method in brief: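 Luminescence from reconstituted NanoBiT luciferase after lytic detection served as read-out of remaining HiBit-BRG1 in stable HeLa cells, which also express LgBit. Cells were seeded at 5000 per well and incubated with compound for 24 h. DMSO and a 2 μM known degrader defined the control range.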

[2] = molecular target: T2, HiBit-BRM fusion protein (Homo sapiens, UniProt P51531); assay: HiBiT-BRM cell-based degradation assay (Nano-Glo HiBiT Lytic Detection, 24 h); details: HeLa cell line expressing HiBiT-BRM; for DC50: read-out: BRM HiBit Degradation IC50
T2 construct: expressed in transfected cells
T2 sequence (P51531 whole entry, the tested form may be a part): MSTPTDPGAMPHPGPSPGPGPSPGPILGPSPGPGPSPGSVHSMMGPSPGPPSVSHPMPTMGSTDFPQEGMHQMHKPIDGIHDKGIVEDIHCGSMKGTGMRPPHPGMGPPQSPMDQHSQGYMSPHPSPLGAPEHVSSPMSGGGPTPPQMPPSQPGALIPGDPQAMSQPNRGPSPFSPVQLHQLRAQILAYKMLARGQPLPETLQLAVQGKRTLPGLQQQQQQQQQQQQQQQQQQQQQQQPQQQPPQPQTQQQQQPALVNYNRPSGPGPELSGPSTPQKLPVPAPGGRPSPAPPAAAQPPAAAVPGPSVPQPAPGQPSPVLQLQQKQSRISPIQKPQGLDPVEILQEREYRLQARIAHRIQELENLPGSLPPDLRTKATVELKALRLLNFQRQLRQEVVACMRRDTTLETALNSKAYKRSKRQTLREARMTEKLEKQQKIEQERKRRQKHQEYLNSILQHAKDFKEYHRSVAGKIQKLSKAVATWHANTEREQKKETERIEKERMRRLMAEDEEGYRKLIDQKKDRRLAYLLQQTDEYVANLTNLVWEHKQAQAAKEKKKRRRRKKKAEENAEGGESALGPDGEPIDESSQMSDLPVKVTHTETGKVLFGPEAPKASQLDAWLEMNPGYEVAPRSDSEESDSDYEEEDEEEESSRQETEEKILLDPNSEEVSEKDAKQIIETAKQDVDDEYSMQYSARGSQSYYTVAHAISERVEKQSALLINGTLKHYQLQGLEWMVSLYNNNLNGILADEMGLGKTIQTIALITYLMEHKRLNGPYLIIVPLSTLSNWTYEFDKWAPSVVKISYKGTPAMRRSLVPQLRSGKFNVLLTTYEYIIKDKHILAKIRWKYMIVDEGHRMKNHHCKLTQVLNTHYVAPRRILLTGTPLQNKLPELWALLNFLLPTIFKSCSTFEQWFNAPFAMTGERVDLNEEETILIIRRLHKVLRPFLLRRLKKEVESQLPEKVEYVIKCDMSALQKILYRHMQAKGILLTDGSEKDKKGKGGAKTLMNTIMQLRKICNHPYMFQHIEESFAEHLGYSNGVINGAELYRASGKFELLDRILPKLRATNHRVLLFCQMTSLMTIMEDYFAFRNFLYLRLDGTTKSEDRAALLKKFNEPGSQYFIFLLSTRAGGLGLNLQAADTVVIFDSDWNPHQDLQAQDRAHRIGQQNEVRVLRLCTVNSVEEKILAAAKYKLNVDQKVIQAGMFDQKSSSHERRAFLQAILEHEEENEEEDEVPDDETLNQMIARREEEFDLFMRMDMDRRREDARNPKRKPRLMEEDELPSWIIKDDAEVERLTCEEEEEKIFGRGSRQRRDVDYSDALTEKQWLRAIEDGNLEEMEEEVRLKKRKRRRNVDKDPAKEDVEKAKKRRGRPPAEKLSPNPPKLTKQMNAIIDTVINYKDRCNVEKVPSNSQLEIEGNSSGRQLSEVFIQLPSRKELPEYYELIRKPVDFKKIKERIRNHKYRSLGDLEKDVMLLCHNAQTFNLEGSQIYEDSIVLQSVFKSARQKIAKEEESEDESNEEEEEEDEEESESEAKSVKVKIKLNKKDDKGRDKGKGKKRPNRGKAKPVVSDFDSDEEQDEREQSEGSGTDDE
Method in brief: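 Percent BRM loss was derived from HiBiT luminescence relative to DMSO-treated cells and cells given 2 μM of a known BRM/BRG1 degrader. Treatment lasted 24 h in HiBiT-BRM HeLa cells, with a top final concentration of 30 μM.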

| SMILES | Dmax [1] [%] | DC50 [1] [nM] | BRM HiBit Degradation Maximum (%) [2] | DC50 [2] [nM] |
| --- | --- | --- | --- | --- |
| Cc1ncsc1-c1ccc([C@H](C)NC(=O)[C@@H]2C[C@@H](O)CN2C(=O)[C@@H](c2cc(OCCN3CC4(Cc5cc(-c6ccccc6O)nnc5N4)C3)no2)C(C)C)cc1 (racemic) [Compound 186, (2S,4R)-4-hydroxy-1-((R)-2-(3-(2-(3′-(2-hydroxyphenyl)-5′,7′-dihydrospiro[azetidine-3,6′-pyrrolo[2,3-c]pyridazin]-1-yl)ethoxy)isoxazol-5-yl)-3-methylbutanoyl)-N-((S)-1-(4-(4-methylthiazol-5-yl)phenyl)ethyl)pyrrolidine-2-carboxamide] | > 75 | > 100 | A (“A” indicates maximum degradation ≥ 75%) | > 10 |
| Cc1ncsc1-c1ccc([C@H](C)NC(=O)[C@@H]2C[C@@H](O)CN2C(=O)[C@@H](c2cc(OCCCN[C@@H]3CCc4[nH]c5nnc(-c6ccccc6O)cc5c4C3)no2)C(C)C)cc1 (single isomer, unassigned) [Compound 145] | < 50 | – | A (“A” indicates maximum degradation ≥ 75%) | > 100 |
| O=C1CCC(N2C(=O)c3ccc(OCCN4CCC(C(=O)N5CC(c6cc7cc(-c8ccccc8O)nnc7[nH]6)C5)CC4)cc3C2=O)C(=O)N1 (stereo not drawn) [Compound 25, 2-(2,6-dioxopiperidin-3-yl)-5-(2-(4-(3-(3-(2-hydroxyphenyl)-7H-pyrrolo[2,3-c]pyridazin-6-yl)azetidine-1-carbonyl)piperidin-1-yl)ethoxy)isoindoline-1,3-dione] | < 50 | – | C (“C” indicates maximum degradation < 50%) | – |
| Cc1ncsc1-c1ccc([C@H](C)NC(=O)[C@@H]2C[C@@H](O)CN2C(=O)[C@@H](c2cc(OCCN(C)Cc3cc4cc(-c5ccccc5O)nnc4[nH]3)no2)C(C)C)cc1 (racemic) [Compound 222, (2S,4R)-4-hydroxy-1-((R)-2-(3-(2-(((3-(2-hydroxyphenyl)-7H-pyrrolo[2,3-c]pyridazin-6-yl)methyl)(methyl)amino)ethoxy)isoxazol-5-yl)-3-methylbutanoyl)-N-((S)-1-(4-(4-methylthiazol-5-yl)phenyl)ethyl)pyrrolidine-2-carboxamide] | < 50 | – | B (“B” indicates maximum degradation ≥ 50%) | > 10 |
| Cc1ncsc1-c1ccc([C@H](C)NC(=O)[C@@H]2C[C@@H](O)CN2C(=O)[C@@H](c2cc(OCC(=O)N[C@@H]3CCc4[nH]c5nnc(-c6ccccc6O)cc5c4C3)no2)C(C)C)cc1 [Compound 150, (2S,4R)-4-hydroxy-1-((R)-2-(3-(2-(((R)-3-(2-hydroxyphenyl)-6,7,8,9-tetrahydro-5H-pyridazino[3,4-b]indol-6-yl)amino)-2-oxoethoxy)isoxazol-5-yl)-3-methylbutanoyl)-N-((S)-1-(4-(4-methylthiazol-5-yl)phenyl)ethyl)pyrrolidine-2-carboxamide] | > 50 | > 100 | A (“A” indicates maximum degradation ≥ 75%) | > 10 |
| Cc1ncsc1-c1ccc([C@H](C)NC(=O)[C@@H]2C[C@@H](O)CN2C(=O)[C@H](c2cc(N3C[C@@H]4C[C@H]3CN4C(=O)[C@@H]3CCc4[nH]c5nnc(-c6ccccc6O)cc5c4C3)no2)C(C)C)cc1 (single isomer, unassigned) [Compound 100] | < 50 | – | C (“C” indicates maximum degradation < 50%) | – |
| Cc1ncsc1-c1ccc([C@H](C)NC(=O)[C@@H]2C[C@@H](O)CN2C(=O)[C@@H](c2cc(C3CN(Cc4cc5cc(-c6ccccc6O)nnc5[nH]4)C3)no2)C(C)C)cc1 (racemic) [Compound 138, (2S,4R)-4-hydroxy-1-((R)-2-(3-(1-((3-(2-hydroxyphenyl)-7H-pyrrolo[2,3-c]pyridazin-6-yl)methyl)azetidin-3-yl)isoxazol-5-yl)-3-methylbutanoyl)-N-((S)-1-(4-(4-methylthiazol-5-yl)phenyl)ethyl)pyrrolidine-2-carboxamide] | < 50 | – | A (“A” indicates maximum degradation ≥ 75%) | > 10 |
| Cc1ncsc1-c1ccc([C@H](C)NC(=O)[C@@H]2C[C@@H](O)CN2C(=O)[C@@H](c2cc(OCCN3CC[C@H](c4[nH]c5nnc(-c6ccccc6O)cc5c4C)C3)no2)C(C)C)cc1 (racemic) [Compound 258, (2S,4R)-4-hydroxy-1-((R)-2-(3-(2-((S)-3-(3-(2-hydroxyphenyl)-5-methyl-7H-pyrrolo[2,3-c]pyridazin-6-yl)pyrrolidin-1-yl)ethoxy)isoxazol-5-yl)-3-methylbutanoyl)-N-((S)-1-(4-(4-methylthiazol-5-yl)phenyl)ethyl)pyrrolidine-2-carboxamide] | > 75 | > 10 | A (“A” indicates maximum degradation ≥ 75%) | < 10 |
| Cc1ncsc1-c1ccc([C@H](C)NC(=O)[C@@H]2C[C@@H](O)CN2C(=O)[C@@H](NC(=O)CCCCCCCCCCCCC(=O)N2CC(c3cc4cc(-c5ccccc5O)nnc4[nH]3)C2)C(C)(C)C)cc1 [Compound 12, (2S,4R)-4-hydroxy-1-((S)-2-(14-(3-(3-(2-hydroxyphenyl)-7H-pyrrolo[2,3-c]pyridazin-6-yl)azetidin-1-yl)-14-oxotetradecanamido)-3,3-dimethylbutanoyl)-N-((S)-1-(4-(4-methylthiazol-5-yl)phenyl)ethyl)pyrrolidine-2-carboxamide] | < 50 | – | A (“A” indicates maximum degradation ≥ 75%) | > 100 |
| Cc1ncsc1-c1ccc(CNC(=O)[C@@H]2C[C@@H](O)CN2C(=O)[C@@H](NC(=O)CCCCCCCC(=O)N2CC(c3cc4cc(-c5ccccc5O)nnc4[nH]3)C2)C(C)(C)C)cc1 [Compound 10, (2S,4R)-4-hydroxy-1-((S)-2-(9-(3-(3-(2-hydroxyphenyl)-7H-pyrrolo[2,3-c]pyridazin-6-yl)azetidin-1-yl)-9-oxononanamido)-3,3-dimethylbutanoyl)-N-(4-(4-methylthiazol-5-yl)benzyl)pyrrolidine-2-carboxamide] | < 50 | – | B (“B” indicates maximum degradation ≥ 50%) | > 1000 |
| Cc1ncsc1-c1ccc([C@H](C)NC(=O)[C@@H]2C[C@@H](O)CN2C(=O)[C@@H](c2cc(OCCN3CC(c4cc5cc(-c6ccccc6O)nnc5n4C)C3)no2)C(C)C)cc1 (racemic) [Compound 140, (2S,4R)-4-hydroxy-1-((R)-2-(3-(2-(3-(3-(2-hydroxyphenyl)-7-methyl-7H-pyrrolo[2,3-c]pyridazin-6-yl)azetidin-1-yl)ethoxy)isoxazol-5-yl)-3-methylbutanoyl)-N-((S)-1-(4-(4-methylthiazol-5-yl)phenyl)ethyl)pyrrolidine-2-carboxamide] | < 50 | – | C (“C” indicates maximum degradation < 50%) | – |
| Cc1ncsc1-c1ccc(CNC(=O)[C@@H]2C[C@@H](O)CN2C(=O)[C@@H](NC(=O)CCCCCCCCC(=O)N2CC(c3cc4cc(-c5ccccc5O)nnc4[nH]3)C2)C(C)(C)C)cc1 [Compound 2, (2S,4R)-4-hydroxy-1-((S)-2-(10-(3-(3-(2-hydroxyphenyl)-7H-pyrrolo[2,3-c]pyridazin-6-yl)azetidin-1-yl)-10-oxodecanamido)-3,3-dimethylbutanoyl)-N-(4-(4-methylthiazol-5-yl)benzyl)pyrrolidine-2-carboxamide] | < 50 | – | A (“A” indicates maximum degradation ≥ 75%) | > 100 |
| Cc1ncsc1-c1ccc(CNC(=O)[C@@H]2C[C@@H](O)CN2C(=O)[C@@H](NC(=O)CCCCCNCCC(=O)N2CC(c3cc4cc(-c5ccccc5O)nnc4[nH]3)C2)C(C)(C)C)cc1 (racemic) [Compound 55, (2S,4R)-4-hydroxy-1-((S)-2-(6-((3-(3-(3-(2-hydroxyphenyl)-7H-pyrrolo[2,3-c]pyridazin-6-yl)azetidin-1-yl)-3-oxopropyl)amino)hexanamido)-3,3-dimethylbutanoyl)-N-(4-(4-methylthiazol-5-yl)benzyl)pyrrolidine-2-carboxamide] | < 50 | – | C (“C” indicates maximum degradation < 50%) | – |
| Cc1ncsc1-c1ccc([C@H](C)NC(=O)[C@@H]2C[C@@H](O)CN2C(=O)[C@@H](c2cc(OCCN3CC(c4[nH]c5nnc(-c6ccccc6O)cc5c4C)C3)no2)C(C)C)cc1 (racemic) [Compound 307, (2S,4R)-4-hydroxy-1-((R)-2-(3-(2-(3-(3-(2-hydroxyphenyl)-5-methyl-7H-pyrrolo[2,3-c]pyridazin-6-yl)azetidin-1-yl)ethoxy)isoxazol-5-yl)-3-methylbutanoyl)-N-((S)-1-(4-(4-methylthiazol-5-yl)phenyl)ethyl)pyrrolidine-2-carboxamide] | > 75 | > 10 | A (“A” indicates maximum degradation ≥ 75%) | < 10 |
| Cc1ncsc1-c1ccc([C@H](C)NC(=O)[C@@H]2C[C@@H](O)CN2C(=O)[C@@H](c2cc(OCCN3CCC(N4CC(c5cc6cc(-c7ccccc7O)nnc6[nH]5)C4)CC3)no2)C(C)C)cc1 (racemic) [Compound 48, (2S,4R)-4-hydroxy-1-((R)-2-(3-(2-(4-(3-(3-(2-hydroxyphenyl)-7H-pyrrolo[2,3-c]pyridazin-6-yl)azetidin-1-yl)piperidin-1-yl)ethoxy)isoxazol-5-yl)-3-methylbutanoyl)-N-((S)-1-(4-(4-methylthiazol-5-yl)phenyl)ethyl)pyrrolidine-2-carboxamide] | < 50 | – | A (“A” indicates maximum degradation ≥ 75%) | > 10 |
